{"source": "patent US8933232B2", "about": "“1,3,4-oxadiazole and 1,3,4-thiadiazole beta-lactamase inhibitors” (priority 2012, dated 2015)", "note": "Where a name gives a salt, the structure may show the parent alone.", "data": [{"system": "bacterial strains that express KPC β-lactamases", "assay": "Synergy MIC / standard BLI potentiation MIC assay against strains expressing KPC β-lactamases", "type": "cell-based", "details": "in the presence of a β-lactam; comparator Avibactam", "description": "The experimental protocol was performed according to Clinical and Laboratory Standards Institute (CLSI) guidelines with modifications as described below (CLSI guidelines can be derived from the CLSI document M07-A9 published in January 2012: “Methods for Dilution Antimicrobial Susceptibility Tests for Bacteria That Grow Aerobically; Approved Standard-Ninth Edition”).\nTo prepare for MIC testing, frozen glycerol stocks of clinical isolates (Klebsiella pneumoniae, Eschericia coli, Enterobacter spp, Citrobacter spp, or Pseudomonas aeruginosa) were used to streak for isolated colonies on rich, non-selective, tryptic soy agar containing 5% sheep's blood (TSAB). Frozen glycerol stocks of laboratory engineered, isogenic E. coli strains, which contain cloned β-lactamase expressing plasmids were used to streak for isolated colonies on rich, selective LB agar supplemented with 25 μg/mL tetracycline to maintain the plasmid. All strains were incubated at 37° C. for 18-24 hrs.\nOn the day of testing, primary cultures were started by scraping off 5-10 colonies from the TSAB plates containing clinical strains or the tetracycline supplemented LB plates containing engineered strains. The clinical strain material was suspended in ˜5 mL of cation adjusted Mueller Hinton Broth (CAMHB) in 14 mL culture tubes. The engineered strain material was suspended in CAMHB (supplemented with 25 μg/mL tetracycline) in 14 mL culture tubes. All strains were incubated at 37° C. with aeration (200 rpm) for ˜2 hrs until the optical density at 600 nm (OD600) was >0.1.\nThe two compound components of the assay were each diluted in CAMHB and added to the 96-well broth microdilution assay plates. 50 μL of the β-lactam was added to each well of the assay plate in 2-fold dilutions with final concentrations ranging from 128 to 0.13 μg/mL. 25 μL, of the BLI compound was added to all wells in the broth microdilution plates at a final concentration of 4 μg/mL. Inoculum cultures were prepared by standardizing the primary cultures to OD600=0.1 and then adding 20 μL of the adjusted primary culture per 1 mL CAMHB for clinical strains or CAMHB (supplemented with tetracycline at 100 μg/mL) for engineered strains, so that the final inoculum density was ˜10^5 colony forming units per milliliter. Diluted inoculum cultures were used to inoculate 25 μl, per well in 96-well broth microdilution assay plates. The final volume of each well was 100 μL and contained a β-lactam at different concentrations, a BLIcompound at 4 μg/mL concentration, the bacterial culture at an OD600 of approximately 0.001 and when necessary tetracycline at 25 μg/mL.\nPlates were incubated for 18-20 hours at 37° C. with aeration (200 rpm). Following incubation, growth was confirmed visually placing plates over a viewing apparatus (stand with a mirror underneath) and then OD600 was measured using a SpectraMax 340PC384 plate reader (Molecular Devices, Sunnyvale, Calif.). Growth was defined as turbidity that could be detected with the naked eye or achieving minimum OD600 of 0.1. MIC values were defined as the lowest concentration producing no visible turbidity.\nThe synergy MIC (sMIC) assay determines the concentration of the BLI required to potentiate the activity of a fixed concentration of a β-lactam antibiotic against β-lactamase producing bacterial strains. The experimental protocol was performed according to Clinical and Laboratory Standards Institute (CLSI) guidelines with modifications as described below (CLSI guidelines can be derived from the CLSI document M07-A9 published in January 2012: “Methods for Dilution Antimicrobial Susceptibility Tests for Bacteria That Grow Aerobically; Approved Standard-Ninth Edition”). […]", "values": [{"smiles": "NCc1nnc([C@@H]2CC[C@@H]3CN2C(=O)N3OS(=O)(=O)O)o1", "note": "[Compound 702, (2S,5R)-2-(5-(aminomethyl)-1,3,4-oxadiazol-2-yl)-7-oxo-1,6-diazabicyclo[3.2.1]octan-6-yl hydrogen sulfate]", "more active than Avibactam for at least one bacterial strain that expresses KPC β-lactamase and/or better spectrum of activity against KPC strains": "more active than Avibactam"}, {"smiles": "N=C(N)NC1(Cc2nnc([C@@H]3CC[C@@H]4CN3C(=O)N4OS(=O)(=O)O)o2)CC1", "note": "[Compound 739, (2S,5R)-2-(5-((1-guanidinocyclopropyl)methyl)-1,3,4-oxadiazol-2-yl)-7-oxo-1,6-diazabicyclo[3.2.1]octan-6-yl hydrogen sulfate]", "more active than Avibactam for at least one bacterial strain that expresses KPC β-lactamase and/or better spectrum of activity against KPC strains": "more active than Avibactam"}, {"smiles": "O=C1N2C[C@@H](CC[C@H]2c2nnc(C3CNC3)o2)N1OS(=O)(=O)O", "note": "[Compound 708, (2S,5R)-2-(5-(azetidin-3-yl)-1,3,4-oxadiazol-2-yl)-7-oxo-1,6-diazabicyclo[3.2.1]octan-6-yl hydrogen sulfate]", "more active than Avibactam for at least one bacterial strain that expresses KPC β-lactamase and/or better spectrum of activity against KPC strains": "more active than Avibactam"}, {"smiles": "O=C1N2C[C@@H](CC[C@H]2c2nnc([C@H]3CNCCN3)o2)N1OS(=O)(=O)O", "note": "[Compound 779, (2S,5R)-7-oxo-2-(5-((R)-piperazin-2-yl)-1,3,4-oxadiazol-2-yl)-1,6-diazabicyclo[3.2.1]octan-6-yl hydrogen sulfate]", "more active than Avibactam for at least one bacterial strain that expresses KPC β-lactamase and/or better spectrum of activity against KPC strains": "more active than Avibactam"}, {"smiles": "N[C@H]1CC[C@@H](c2nnc([C@@H]3CC[C@@H]4CN3C(=O)N4OS(=O)(=O)O)o2)C1", "note": "[Compound 768, (2S,5R)-2-(5-((1R,3S)-3-aminocyclopentyl)-1,3,4-oxadiazol-2-yl)-7-oxo-1,6-diazabicyclo[3.2.1]octan-6-yl hydrogen sulfate]", "more active than Avibactam for at least one bacterial strain that expresses KPC β-lactamase and/or better spectrum of activity against KPC strains": "more active than Avibactam"}, {"smiles": "N[C@H]1C[C@@H](NCc2nnc([C@@H]3CC[C@@H]4CN3C(=O)N4OS(=O)(=O)O)o2)C1", "note": "[Compound 756, (2S,5R)-2-(5-((((1s,3R)-3-aminocyclobutyl)amino)methyl)-1,3,4-oxadiazol-2-yl)-7-oxo-1,6-diazabicyclo[3.2.1]octan-6-yl hydrogen sulfate]", "more active than Avibactam for at least one bacterial strain that expresses KPC β-lactamase and/or better spectrum of activity against KPC strains": "more active than Avibactam"}, {"smiles": "O=C1N2C[C@@H](CC[C@H]2c2nnc(CCCNC3CCNCC3)o2)N1OS(=O)(=O)O", "note": "[Compound 771, (2S,5R)-7-oxo-2-(5-(3-(piperidin-4-ylamino)propyl)-1,3,4-oxadiazol-2-yl)-1,6-diazabicyclo[3.2.1]octan-6-yl hydrogen sulfate]", "more active than Avibactam for at least one bacterial strain that expresses KPC β-lactamase and/or better spectrum of activity against KPC strains": "more active than Avibactam"}, {"smiles": "O=C1N2C[C@@H](CC[C@H]2c2nnc(CN3CCNCC3)o2)N1OS(=O)(=O)O", "note": "[Compound 777, (2S,5R)-7-oxo-2-(5-(piperazin-1-ylmethyl)-1,3,4-oxadiazol-2-yl)-1,6-diazabicyclo[3.2.1]octan-6-yl hydrogen sulfate]", "more active than Avibactam for at least one bacterial strain that expresses KPC β-lactamase and/or better spectrum of activity against KPC strains": "more active than Avibactam"}, {"smiles": "N=C(N)N1CC(NCc2nnc([C@@H]3CC[C@@H]4CN3C(=O)N4OS(=O)(=O)O)o2)C1", "note": "[Compound 746, (2S,5R)-2-(5-(((1-carbamimidoylazetidin-3-yl)amino)methyl)-1,3,4-oxadiazol-2-yl)-7-oxo-1,6-diazabicyclo[3.2.1]octan-6-yl hydrogen sulfate]", "more active than Avibactam for at least one bacterial strain that expresses KPC β-lactamase and/or better spectrum of activity against KPC strains": "more active than Avibactam"}, {"smiles": "O=C1N2C[C@@H](CC[C@H]2c2nnc(C3CCNC3)o2)N1OS(=O)(=O)O", "note": "(stereo partly drawn) [Compound 710, (2S,5R)-7-oxo-2-(5-(pyrrolidin-3-yl)-1,3,4-oxadiazol-2-yl)-1,6-diazabicyclo[3.2.1]octan-6-yl hydrogen sulfate]", "more active than Avibactam for at least one bacterial strain that expresses KPC β-lactamase and/or better spectrum of activity against KPC strains": "more active than Avibactam"}, {"smiles": "N[C@H]1C[C@@H](c2nnc([C@@H]3CC[C@@H]4CN3C(=O)N4OS(=O)(=O)O)s2)C1", "note": "[Compound 795, (2S,5R)-2-(5-((1s,3R)-3-aminocyclobutyl)-1,3,4-thiadiazol-2-yl)-7-oxo-1,6-diazabicyclo[3.2.1]octan-6-yl hydrogen sulfate]", "more active than Avibactam for at least one bacterial strain that expresses KPC β-lactamase and/or better spectrum of activity against KPC strains": "more active than Avibactam"}, {"smiles": "CNCCCc1nnc([C@@H]2CC[C@@H]3CN2C(=O)N3OS(=O)(=O)O)o1", "note": "[Compound 734, 2S,5R)-2-(5-(3-(methylamino)propyl)-1,3,4-oxadiazol-2-yl)-7-oxo-1,6-diazabicyclo[3.2.1]octan-6-yl hydrogen sulfate]", "more active than Avibactam for at least one bacterial strain that expresses KPC β-lactamase and/or better spectrum of activity against KPC strains": "more active than Avibactam"}, {"smiles": "N[C@@H]1CN[C@@H](c2nnc([C@@H]3CC[C@@H]4CN3C(=O)N4OS(=O)(=O)O)o2)C1", "note": "[Compound 763, (2S,5R)-2-(5-((2R,4S)-4-aminopyrrolidin-2-yl)-1,3,4-oxadiazol-2-yl)-7-oxo-1,6-diazabicyclo[3.2.1]octan-6-yl hydrogen sulfate]", "more active than Avibactam for at least one bacterial strain that expresses KPC β-lactamase and/or better spectrum of activity against KPC strains": "more active than Avibactam"}, {"smiles": "NC1(Cc2nnc([C@@H]3CC[C@@H]4CN3C(=O)N4OS(=O)(=O)O)o2)CC1", "note": "[Compound 724, (2S,5R)-2-(5-((1-aminocyclopropyl)methyl)-1,3,4-oxadiazol-2-yl)-7-oxo-1,6-diazabicyclo[3.2.1]octan-6-yl hydrogen sulfate]", "more active than Avibactam for at least one bacterial strain that expresses KPC β-lactamase and/or better spectrum of activity against KPC strains": "more active than Avibactam"}, {"smiles": "O=C1N2C[C@@H](CC[C@H]2c2nnc(CC3CCNC3)o2)N1OS(=O)(=O)O", "note": "(stereo partly drawn) [Compound 764, (2S,5R)-7-oxo-2-(5-(pyrrolidin-3-ylmethyl)-1,3,4-oxadiazol-2-yl)-1,6-diazabicyclo[3.2.1]octan-6-yl hydrogen sulfate]", "more active than Avibactam for at least one bacterial strain that expresses KPC β-lactamase and/or better spectrum of activity against KPC strains": "more active than Avibactam"}, {"smiles": "N[C@H]1CN[C@H](c2nnc([C@@H]3CC[C@@H]4CN3C(=O)N4OS(=O)(=O)O)o2)C1", "note": "[Compound 762, (2S,5R)-2-(5-((2S,4R)-4-aminopyrrolidin-2-yl)-1,3,4-oxadiazol-2-yl)-7-oxo-1,6-diazabicyclo[3.2.1]octan-6-yl hydrogen sulfate]", "more active than Avibactam for at least one bacterial strain that expresses KPC β-lactamase and/or better spectrum of activity against KPC strains": "more active than Avibactam"}, {"smiles": "O=C1N2C[C@@H](CC[C@H]2c2nnc(CCNC3CCNCC3)o2)N1OS(=O)(=O)O", "note": "[Compound 770, (2S,5R)-7-oxo-2-(5-(2-(piperidin-4-ylamino)ethyl)-1,3,4-oxadiazol-2-yl)-1,6-diazabicyclo[3.2.1]octan-6-yl hydrogen sulfate]", "more active than Avibactam for at least one bacterial strain that expresses KPC β-lactamase and/or better spectrum of activity against KPC strains": "more active than Avibactam"}, {"smiles": "N=C(N)NC1CC(Cc2nnc([C@@H]3CC[C@@H]4CN3C(=O)N4OS(=O)(=O)O)o2)C1", "note": "(stereo partly drawn) [Compound 752, (2S,5R)-2-(5-(β-guanidinocyclobutyl)methyl)-1,3,4-oxadiazol-2-yl)-7-oxo-1,6-diazabicyclo[3.2.1]octan-6-yl hydrogen sulfate]", "more active than Avibactam for at least one bacterial strain that expresses KPC β-lactamase and/or better spectrum of activity against KPC strains": "more active than Avibactam"}]}]}
